Experimental data from US20230310388A1, “Methods and Compositions for Treating Fungal Infections” (Neoculi Pty Ltd, priority 2020, published 2023).
Values joined by “and” are separate entries in the source; they are usually repeats but may differ in a detail not shown here. Equal values may be shown once.

Columns and labels:
[1] = tested on: Candida albicans; experiment: CLSI broth microdilution MIC (Example 3); assay type: cell-based
Description: (§1) Antifungal minimum inhibitory concentration (MIC) testing was undertaken as recommended by the CLSI. Briefly, antifungal susceptibility tests were performed for amphotericin B, robenidine (NCL812) and 5 robenidine analogs (NCL062, NCL195, NCL219, NCL259, NCL265) by standard broth microdilution method (CLSI) in RPMI 1640. Various concentrations (ranging from high to low) of the selected compounds were prepared in RPMI 1640 medium by double dilution in 96-well microtitre plates. Each well contained an inoculum of approximately 2×10^3 cells/mL. The wells without addition of drugs served as negative (no inoculum) and positive (inoculum only) growth controls. Microtitre plates were incubated at 35° C. for 24-48 hours. […] Antifungal MICs were determined for each isolate in duplicate; if the values obtained were different, the MIC test was repeated a third time. Antifungal susceptibility tests were performed for amphotericin B and NCL analogs by standard broth microdilution method (CLSI). Briefly, various concentrations (ranging from high to low) of the selected compounds were prepared in RPMI 1640 medium by double dilution in the 96-well plates. Each well contained an inoculum of approximately 2×10^3 cells/mL. The wells without addition of drugs served as a negative control. Micro plates were incubated at 35° C. for 48 hour and read spectrophotometrically at 600 nm, using a microplate reader (Multiskan-EX; Thermo Elect. Corp., USA).

[2] = tested on: Candida parapsilosis; experiment: CLSI broth microdilution MIC (Example 3); assay type: cell-based; settings: Candida parapsilosis ATCC 22019
Description: as §1

[3] = tested on: Candida albicans; experiment: CLSI broth microdilution MIC (Example 4); assay type: cell-based; settings: for antifungal activity against the two isolates of Candida albicans: summary in words
Description: (§2) Antifungal minimum inhibitory concentration (MIC) testing was undertaken as recommended by the CLSI. Briefly, antifungal susceptibility tests were performed for amphotericin B, robenidine (NCL812) and robenidine (NCL) analogs (NCL004, NCL020, NCL023, NCL024, NCL062, NCL094, NCL097, NCL110, NCL113, NCL114, NCL115, NCL135, NCL139, NCL180, NCL181, NCL195, NCL219, NCL220, NCL228, NCL247, NCL250, NCL259, NCL260, NCL263, NCL265, NCL269, NCL274) by standard broth microdilution method (CLSI) in RPMI 1640. Various concentrations (ranging from high to low) of the selected compounds were prepared in RPMI 1640 medium by double dilution in 96-well microtitre plates. Each well contained an inoculum of approximately 2×10^3 cells/mL. The wells without addition of drugs served as negative (no inoculum) and positive (inoculum only) growth controls. Microtitre plates were incubated at 35° C. for 24-48 hours. […] Antifungal MICs were determined for each isolate in duplicate; if the values obtained were different, the MIC test was repeated a third time.

[4] = tested on: Cryptococcus neoformans; experiment: CLSI broth microdilution MIC (Example 4); assay type: cell-based
Description: as §2

[5] = tested on: Candida albicans; experiment: CLSI broth microdilution MIC (Example 5); assay type: cell-based; settings: for activity against one or more isolates of Cryptococcus neoformans and Candida albicans: summary in words
Description: as §2, with “robenidine” for “robenidine (NCL)”, “(NCL23, NCL24, NCL97,” for “(NCL004, NCL020, NCL023, NCL024, NCL062, NCL094, NCL097, NCL110,”, “NCL113,” for “NCL113, NCL114,”, “NCL115,” for “NCL115, NCL135, NCL139, NCL180, NCL181,”, “NCL220,” for “NCL220, NCL228, NCL247, NCL250,”, “NCL265)” for “NCL260, NCL263, NCL265, NCL269, NCL274)”

[6] = tested on: Cryptococcus neoformans; experiment: CLSI broth microdilution MIC (Example 5); assay type: cell-based
Description: as §2, with “robenidine” for “robenidine (NCL)”, “(NCL23, NCL24, NCL97,” for “(NCL004, NCL020, NCL023, NCL024, NCL062, NCL094, NCL097, NCL110,”, “NCL113,” for “NCL113, NCL114,”, “NCL115,” for “NCL115, NCL135, NCL139, NCL180, NCL181,”, “NCL220,” for “NCL220, NCL228, NCL247, NCL250,”, “NCL265)” for “NCL260, NCL263, NCL265, NCL269, NCL274)”

[7] = tested on: Candida albicans; experiment: CLSI broth microdilution MIC (Example 6); assay type: cell-based
Description: (§3) Antifungal minimum inhibitory concentration (MIC) testing was undertaken as recommended by the CLSI (1). Briefly, antifungal susceptibility tests were performed for amphotericin B, robenidine (NCL812) and 10 robenidine analogs (NCL023, NCL024, NCL097, NCL113, NCL115, NCL195, NCL219, NCL220, NCL259, NCL265) by standard broth microdilution method (CLSI) in RPMI 1640. Various concentrations (ranging from high to low) of the selected compounds were prepared in RPMI 1640 medium by double dilution in 96-well microtitre plates. Each well contained an inoculum of approximately 2×10^3 cells/mL. The wells without addition of drugs served as negative (no inoculum) and positive (inoculum only) growth controls. Microtitre plates were incubated at 35° C. for 24-48 hours. […] Antifungal MICs were determined for each isolate in duplicate; if the values obtained were different, the MIC test was repeated a third time.

[8] = tested on: Cryptococcus neoformans; experiment: CLSI broth microdilution MIC (Example 6); assay type: cell-based
Description: as §3

[9] = tested on: C. gattii; experiment: CLSI broth microdilution MIC (Example 6); assay type: cell-based, Cryptococcus gattii
Description: as §3

[10] = tested on: Candida albicans ATCC14053; experiment: Broth micro-dilution screen at 16 μg/mL and MIC (Example 9); assay type: cell-based; settings: for Screen at 16 μg/mL: single concentration 16 μg/mL, Growth or No growth of C. albicans ATCC14053; for MIC: C. albicans ATCC14053, test range 0.25-64 μg/mL, duplicate
Description: The antifungal activity of 201 NCL analogs against Candida albicans ATCC14053 in vitro was investigated. A broth micro-dilution method was used, according to CLSI guidelines as described. NCL analogs were dissolved in DMSO and originally screened at a single concentration of 16 μg/mL.

[11] = Candida albicans ATCC 90028, 1st
[12] = Candida albicans ATCC 90028, 2nd
[13] = clinical isolate C. albicans 12-93301752 Azole Resistant
[14] = clinical isolate C. albicans 14-90045999 Azole Resistant
[15] = clinical isolate C. albicans 15-45171061
[16] = clinical isolate C. albicans 15-91329871
[17] = clinical isolate C. albicans 16-24136919 Azole Resistant
[18] = clinical isolate C. albicans 16-46177400
[19] = clinical isolate C. albicans 16-90050810
[20] = clinical isolate C. albicans 16-90054237
[21] = clinical isolate C. albicans 18-144-00196
[22] = clinical isolate C. albicans 18-148-08188 Azole Resistant
[23] = human clinical isolate C. neoformans serotype A/D hybrid
[24] = human clinical isolate C. neoformans var grubii 16-90050434
[25] = human clinical isolate C. neoformans var grubii 17-90028233
[26] = human clinical isolate C. neoformans var grubii 17-93996464
[27] = human clinical isolate C. neoformans var grubii 17-93996964
[28] = human clinical isolate C. gatti 17-90232099
[29] = human clinical isolate C. gattii 16-90050373
[30] = human clinical isolate C. gattii 17-90028211
[31] = human clinical isolate C. gattii 17-90028217
[32] = human clinical isolate C. gattii 17-90028242

C[C@@H]1[C@H](O)[C@@H](C)/C=C/C=C/C=C/C=C/C=C/C=C/C=C/[C@H](O[C@@H]2O[C@H](C)[C@@H](O)[C@H](N)[C@@H]2O)C[C@@H]2O[C@](O)(C[C@@H](O)C[C@@H](O)[C@H](O)CC[C@@H](O)C[C@@H](O)CC(=O)O[C@H]1C)C[C@H](O)[C@H]2C(=O)O [Amphotericin B, reference compound]
0.125 mg/L: MIC [5, 15] | MIC [5, 16] | MIC [5, 19] | MIC [5, 20]
0.5 mg/L: MIC [1, 12] | MIC ([1]; Candida albicans, 1st) | MIC ([2]; 1st) | MIC ([2]; 2nd) | MIC at 24-48 hours ([3]; Candida albicans ATCC 90028) | MIC ([5]; Candida albicans ATCC 90028) | MIC [5, 13] | MIC [5, 17] | MIC [5, 22] | MIC ([7]; Candida albicans ATCC 90028) | MIC [8, 23] | MIC [9, 31]
0.25 mg/L: MIC [1, 11] | MIC [5, 14] | MIC [5, 18] | MIC [5, 21] | MIC ([6]; Cryptococcus neoformans SA1) | MIC ([6]; Cryptococcus neoformans SA2)
2 mg/L: MIC at 24-48 hours ([3]; Candida albicans SA3) | MIC ([5]; C. albicans SA3) | MIC ([7]; C. albicans SA3) | MIC [8, 25]
1 mg/L: MIC ([1]; Candida albicans, 2nd) | MIC [8, 24] | MIC [8, 26] | MIC [8, 27] | MIC [9, 28] | MIC [9, 29] | MIC [9, 30] | MIC [9, 32]
0.3 mg/L: MIC at 24-48 hours ([4]; Cryptococcus neoformans SA1) | MIC at 24-48 hours ([4]; Cryptococcus neoformans SA2) | MIC ([8]; Cryptococcus neoformans SA1) | MIC ([8]; Cryptococcus neoformans SA2)

C/C(=N\NC(=N)N/N=C(\C)c1ccc(Cl)cc1)c1ccc(Cl)cc1.Cl [NCL062]
Growth: Screen at 16 μg/mL [10]
high antifungal activity: antifungal activity against the two isolates of Candida albicans [3]
0.5 mg/L: MIC ([1]; Candida albicans, 1st) | MIC ([2]; 1st)
1 mg/L: MIC [1, 11] | MIC [1, 12] | MIC ([1]; Candida albicans, 2nd) | MIC ([2]; 2nd) | MIC at 24-48 hours ([3]; Candida albicans ATCC 90028) | MIC at 24-48 hours ([3]; Candida albicans SA3) | MIC at 24-48 hours ([4]; Cryptococcus neoformans SA1) | MIC at 24-48 hours ([4]; Cryptococcus neoformans SA2)

C/C(=N\NC(=N)N/N=C(\C)c1ccc(C(C)(C)C)cc1)c1ccc(C(C)(C)C)cc1.Cl [NCL219]
high antifungal activity: antifungal activity against the two isolates of Candida albicans [3]
32 mg/L: MIC at 24-48 hours ([3]; Candida albicans ATCC 90028) | MIC ([5]; Candida albicans ATCC 90028) | MIC ([7]; Candida albicans ATCC 90028)
16 mg/L: MIC at 24-48 hours ([3]; Candida albicans SA3) | MIC ([5]; C. albicans SA3) | MIC ([7]; C. albicans SA3)
highly active: activity against one or more isolates of Cryptococcus neoformans and Candida albicans [5]
8 mg/L: MIC [5, 15]
>32 mg/L: MIC [1, 11] | MIC [1, 12] | MIC ([1]; Candida albicans, 1st) | MIC ([1]; Candida albicans, 2nd) | MIC ([2]; 1st) | MIC ([2]; 2nd) | MIC [8, 23] | MIC [8, 24] | MIC [8, 25] | MIC [8, 26] | MIC [8, 27] | MIC [9, 28] | MIC [9, 29] | MIC [9, 30] | MIC [9, 31] | MIC [9, 32]
2 mg/L: MIC at 24-48 hours ([4]; Cryptococcus neoformans SA1) | MIC at 24-48 hours ([4]; Cryptococcus neoformans SA2) | MIC ([6]; Cryptococcus neoformans SA1) | MIC ([6]; Cryptococcus neoformans SA2) | MIC ([8]; Cryptococcus neoformans SA1) | MIC ([8]; Cryptococcus neoformans SA2)
>16 mg/L: MIC [5, 13] | MIC [5, 16] | MIC [5, 17] | MIC [5, 18] | MIC [5, 19] | MIC [5, 20] | MIC [5, 21] | MIC [5, 22]
Growth: Screen at 16 μg/mL [10]
4 mg/L: MIC [5, 14]
>64 mg/L: MIC [10]

[H]/N=C(\N)NN=C(CC1CCCCC1)c1ccc(Cl)cc1 [NCL259]
high antifungal activity: antifungal activity against the two isolates of Candida albicans [3]
>16 mg/L: MIC [5, 14] | MIC [5, 16] | MIC [5, 18] | MIC [5, 19] | MIC [5, 21] | MIC [5, 22]
4 mg/L: MIC [1, 11] | MIC ([1]; Candida albicans, 1st) | MIC ([1]; Candida albicans, 2nd) | MIC ([2]; 1st) | MIC ([2]; 2nd)
8 mg/L: MIC [1, 12] | MIC [5, 15] | MIC [5, 17] | MIC [8, 23] | MIC [8, 24] | MIC [8, 25] | MIC [8, 27] | MIC [9, 28] | MIC [9, 29] | MIC [9, 30] | MIC [9, 32]
highly active: activity against one or more isolates of Cryptococcus neoformans and Candida albicans [5]
32 mg/L: MIC [5, 20]
8 mg/L and 16 mg/L: MIC [8, 26] | MIC [9, 31] | MIC [10]
No growth: Screen at 16 μg/mL [10]
2 mg/L: MIC at 24-48 hours ([4]; Cryptococcus neoformans SA1) | MIC at 24-48 hours ([4]; Cryptococcus neoformans SA2) | MIC ([6]; Cryptococcus neoformans SA1) | MIC ([6]; Cryptococcus neoformans SA2) | MIC ([8]; Cryptococcus neoformans SA1) | MIC ([8]; Cryptococcus neoformans SA2)
16 mg/L: MIC at 24-48 hours ([3]; Candida albicans ATCC 90028) | MIC at 24-48 hours ([3]; Candida albicans SA3) | MIC ([5]; C. albicans SA3) | MIC ([5]; Candida albicans ATCC 90028) | MIC [5, 13] | MIC ([7]; C. albicans SA3) | MIC ([7]; Candida albicans ATCC 90028)
